The source of these data is US11117883B2 (Ariad Pharmaceuticals, Inc., priority 2016, dated 2021).

For one assay, the target named is T1, BAF3 FL KIT EX11DEL (Homo sapiens, UniProt P10721, cells depend on it, form not given).
T1 construct: "BAF3 FL KIT EX11DEL"
Nature of the assay: c-Kit assay: Ba/F3 KIT mutant viability (Cell Titer-Glo, 72 hours). The assay is classed as cell-based. To be noted: viability after 72 hours. As for the experimental part:
(§1) KIT cDNAs were synthesized by GenScript and cloned into the pLVX-IRES-Puro vector (Clontech). Viral particles were produced by transfecting pLVX-IRES-puro vectors containing KIT mutant genes into HEK293 cells (Invitrogen) using the Trans-Lentiviral ORF Packaging Kit (Thermo Scientific). 48 hours post-transfection, virus-containing supernatants were harvested and incubated for another 48-72 hours with parental Ba/F3 cells (DSMZ) in the presence of 10 ng/mL […] (R&D Systems). Transduced Ba/F3 cells were then selected by IL-3 withdrawal and puromycin (0.5-1 μg/mL, Invitrogen).
(§2) Cell lines (i.e., EX11DEL, EX11DEL/D816H, EX11DEL/T670I, and EX11DEL/V654A) were plated into 384 well plates using RPMI 1640 supplemented with 10% FBS at densities that produced linear growth and incubated at 37° C. in 5% (v/v) CO2. Cells were treated with eight concentrations of compound over a 4-fold dilution (10 μM to 0.61 nM) and viability was assessed using Cell Titer-Glo assay (Promega) after 72 hours. Data were plotted as percent viability relative to vehicle-treated cells. Dose-responses curves were generated and used to calculate IC50 values.
Background: ATP-based viability assays read luminescence as a measure of living cells.

In assay [1] the target is T2, BAF3 FL KIT EX11DEL/D816H (Homo sapiens, UniProt P10721, D816H, cells depend on it, form not given).
T2 construct: "BAF3 FL KIT EX11DEL/ D816H"
T2 sequence (P10721 with tags, fused parts or gaps DEL557-558/D816H, form open): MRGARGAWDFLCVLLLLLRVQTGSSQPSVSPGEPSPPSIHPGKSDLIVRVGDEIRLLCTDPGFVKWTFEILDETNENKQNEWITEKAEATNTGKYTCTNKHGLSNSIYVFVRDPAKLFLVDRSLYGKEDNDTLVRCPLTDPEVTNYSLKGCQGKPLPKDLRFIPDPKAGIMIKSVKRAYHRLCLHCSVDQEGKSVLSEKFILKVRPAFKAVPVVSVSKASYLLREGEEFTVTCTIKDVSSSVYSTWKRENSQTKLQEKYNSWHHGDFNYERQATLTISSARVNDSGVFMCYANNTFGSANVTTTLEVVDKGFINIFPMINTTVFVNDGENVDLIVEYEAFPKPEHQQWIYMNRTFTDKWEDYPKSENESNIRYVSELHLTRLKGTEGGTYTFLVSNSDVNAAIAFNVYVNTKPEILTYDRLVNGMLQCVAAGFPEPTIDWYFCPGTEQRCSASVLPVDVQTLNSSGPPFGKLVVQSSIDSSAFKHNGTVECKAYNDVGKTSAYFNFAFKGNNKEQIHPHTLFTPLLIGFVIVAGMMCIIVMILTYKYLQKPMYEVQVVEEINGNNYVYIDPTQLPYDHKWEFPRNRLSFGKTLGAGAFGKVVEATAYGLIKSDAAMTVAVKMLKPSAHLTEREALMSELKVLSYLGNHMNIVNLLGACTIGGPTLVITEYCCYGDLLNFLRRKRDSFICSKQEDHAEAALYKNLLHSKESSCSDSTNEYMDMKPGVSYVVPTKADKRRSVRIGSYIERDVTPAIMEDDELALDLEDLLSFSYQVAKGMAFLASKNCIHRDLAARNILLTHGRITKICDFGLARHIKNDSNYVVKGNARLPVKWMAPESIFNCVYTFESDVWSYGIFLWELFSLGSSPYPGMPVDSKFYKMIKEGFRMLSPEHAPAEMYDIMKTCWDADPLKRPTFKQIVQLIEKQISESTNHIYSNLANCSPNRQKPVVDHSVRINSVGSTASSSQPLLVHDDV
The assay is described as above. It counts as cell-based. To be noted: viability after 72 hours. As for the experimental part: as §1, §2

Assay [2] concerns the target T3, BAF3 FL KIT EX11DEL/T6701 (Homo sapiens, UniProt P10721, T670I, cells depend on it, form not given).
T3 construct: "BAF3 FL KIT EX11DEL/ T6701"
Described as above. To be noted: EX11DEL/T6701, viability after 72 hours. It counts as cell-based. How it is done:
as §1, §2

Assay [3] deals with T4, BAF3 FL KIT EX11DEL/V654A (Homo sapiens, UniProt P10721, V654A, cells depend on it, form not given).
T4 construct: "BAF3 FL KIT EX11DEL/ V654A"
T4 sequence (P10721 with tags, fused parts or gaps DEL557-558/V654A, form open): as the sequence (P10721 with tags, fused parts or gaps DEL557-558/D816H, form open) above, with V652A, H814D counted along it
Described as above. The assay is classed as cell-based. To be noted: viability after 72 hours. How it is done: as §1, §2

Assay [4] concerns gastrointestinal stromal tumors (GIST). To be noted: third line therapy; cited from earlier work.

Molecules are shown by their SMILES.

T1 sequence (P10721 with tags, fused parts or gaps DEL557-558): as the sequence (P10721 with tags, fused parts or gaps DEL557-558/D816H, form open) above, with H814D counted along it
T3 sequence (P10721 with tags, fused parts or gaps DEL557-558/T670I, form open): as the sequence (P10721 with tags, fused parts or gaps DEL557-558/D816H, form open) above, with T668I, H814D counted along it

Regarding `Cc1ccc(C(=O)Nc2cc(C(F)(F)F)ccn2)cc1C#Cc1ccc2c(c1)ncn2-c1cccc(N2CCN(C)CC2)c1` [Compound I-14, 4-methyl-3-((1-(3-(4-methylpiperazin-1-yl)phenyl)-1H-benzo[d]imidazol-5-yl)ethynyl)-N-(4-(trifluoromethyl)pyridin-2-yl)benzamide], the concentration for 50% growth inhibition (GI50) (usually the concentration that inhibits growth by half) lay within 0.05 to 0.1 µM on BAF3 FL KIT EX11DEL, 0.1 to 10 µM in assay [1], 0.1 to 10 µM in assay [2] and 0.1 to 10 µM in assay [3].

As to `Cc1ccc(C(=O)Nc2cc(C(F)(F)F)ccn2)cc1C#Cc1ccc2c(c1)ncn2CCN1CCOCC1` [Compound I-5, 4-methyl-3-((1-(2-morpholinoethyl)-1H-benzo[d]imidazol-5-yl)ethynyl)-N-(4-(trifluoromethyl)pyridin-2-yl)benzamide], the 50% growth inhibitory concentration (GI50) lay in the range of 0.05 to 0.1 µM at BAF3 FL KIT EX11DEL, 0.1 to 10 µM in assay [1], 0.1 to 10 µM in assay [2] and 0.1 to 10 µM in assay [3].

On to `Cc1ccc(C(=O)Nc2ccc(CN3CCCC3)c(C(F)(F)F)c2)cc1C#Cc1ccc2c(c1)ncn2C` [Compound I-30, 4-methyl-3-((1-methyl-1H-benzo[d]imidazol-5-yl)ethynyl)-N-(4-(pyrrolidin-1-ylmethyl)-3-(trifluoromethyl)phenyl)benzamide], for which the concentration for 50% growth inhibition (GI50) at BAF3 FL KIT EX11DEL lay in the range of 0.01 to 0.05 µM; in assay [1], 0.1 to 10 µM; in assay [2], 0.05 to 0.1 µM; in assay [3] it was 0.05 to 0.1 µM.

`Cc1ccc(NC(=O)c2ccc(CN3CCN(C)CC3)c(C(F)(F)F)c2)cc1C#Cc1ccc2c(c1)ncn2-c1cnn(C)c1` [Compound I-46, N-(4-methyl-3-((1-(1-methyl-1H-pyrazol-4-yl)-1H-benzo[d]imidazol-5-yl)ethynyl)phenyl)-4-((4-methylpiperazin-1-yl)methyl)-3-(trifluoromethyl)benzamide]: the GI50 was in the range of 0.01 to 0.05 µM at BAF3 FL KIT EX11DEL, 0.1 to 10 µM in assay [1], 0.05 to 0.1 µM in assay [2] and 0.1 to 10 µM in assay [3].

Regarding `Cc1ccc(C(=O)Nc2cc(C(F)(F)F)ccn2)cc1C#Cc1ccc2c(c1)ncn2-c1cn(C)cn1` [Compound I-23, 4-methyl-3-((1-(1-methyl-1H-imidazol-4-yl)-1H-benzo[d]imidazol-5-yl)ethynyl)-N-(4-(trifluoromethyl)pyridin-2-yl)benzamide], the GI50 at BAF3 FL KIT EX11DEL was less than 0.01 µM; in assay [1], 0.01 to 0.05 µM; in assay [2], less than 0.01 µM; in assay [3], 0.01 to 0.05 µM.

Consider `Cc1ccc(C(=O)Nc2cccc(C3CC3)c2)cc1C#Cc1ccc2c(c1)ncn2-c1cnn(C)c1` [Compound I-28, N-(3-cyclopropylphenyl)-4-methyl-3-((1-(1-methyl-1H-pyrazol-4-yl)-1H-benzo[d]imidazol-5-yl)ethynyl)benzamide], for which the 50% growth inhibitory concentration (GI50) lay within 0.01 to 0.05 µM at BAF3 FL KIT EX11DEL, 0.05 to 0.1 µM in assay [1], 0.01 to 0.05 µM in assay [2] and 0.05 to 0.1 µM in assay [3].

Consider `Cc1ccc(NC(=O)c2ccc(CN3CCN(C)CC3)c(C(F)(F)F)c2)cc1C#Cc1ccc2c(c1)ncn2C` [Compound I-18, N-(4-methyl-3-((1-methyl-1H-benzo[d]imidazol-5-yl)ethynyl)phenyl)-4-((4-methylpiperazin-1-yl)methyl)-3-(trifluoromethyl)benzamide], for which the 50% growth inhibitory concentration (GI50) (on BAF3 FL KIT EX11DEL; in assay [1]; in assay [2]; in assay [3]) was 0.1 to 10 µM throughout.

In the case of `CCn1cnc2cc(C#Cc3cc(C(=O)Nc4cc(C(F)(F)F)ccn4)ccc3C)ccc21` [Compound I-7, 3-((1-ethyl-H-benzo[d]imidazol-5-yl)ethynyl)-4-methyl-N-(4-(trifluoromethyl)pyridin-2-yl)benzamide], the 50% growth inhibitory concentration (GI50) at BAF3 FL KIT EX11DEL fell in the range of 0.01 to 0.05 µM; in assay [1], 0.1 to 10 µM; in assay [2] it was 0.05 to 0.1 µM; in assay [3], 0.1 to 10 µM.

`CNC(=O)c1cc(Oc2ccc(NC(=O)Nc3ccc(Cl)c(C(F)(F)F)c3)c(F)c2)ccn1` [Regorafenib]: in assay [4], the ORR was 4.5% and the “median PFS” value was 4.8 months.

With `Cc1ccc(C(=O)Nc2cc(C(F)(F)F)ccn2)cc1C#Cc1ccc2c(c1)ncn2-c1ccc(N2CCN(C)CC2)cc1` [Compound I-15, 4-methyl-3-((1-(4-(4-methylpiperazin-1-yl)phenyl)-1H-benzo[d]imidazol-5-yl)ethynyl)-N-(4-(trifluoromethyl)pyridin-2-yl)benzamide], the 50% growth inhibitory concentration (GI50) on BAF3 FL KIT EX11DEL lay in the range of 0.05 to 0.1 µM; in assay [1], 0.1 to 10 µM; in assay [2] it was 0.1 to 10 µM; in assay [3], 0.1 to 10 µM.

For the compound `Cn1cc(-n2cnc3cc(C#Cc4cccc(NC(=O)c5cc(C(F)(F)F)ccn5)c4)ccc32)cn1` [Compound I-49, N-(3-((1-(1-methyl-1H-pyrazol-4-yl)-1H-benzo[d]imidazol-5-yl)ethynyl)phenyl)-4-(trifluoromethyl)picolinamide], the 50% growth inhibitory concentration (GI50) at BAF3 FL KIT EX11DEL was less than 0.01 µM; in assay [1], 0.1 to 10 µM; in assay [2] it was 0.01 to 0.05 µM; in assay [3], 0.05 to 0.1 µM.

On to `Cc1ccc(C(=O)Nc2cc(C(F)(F)F)ccn2)cc1C#Cc1ccc2c(c1)ncn2-c1ccccc1` [Compound I-21, 4-methyl-3-((1-phenyl-1H-benzo[d]imidazol-5-yl)ethynyl)-N-(4-(trifluoromethyl)pyridin-2-yl)benzamide], for which the 50% growth inhibitory concentration (GI50) (on BAF3 FL KIT EX11DEL; in assay [1]; in assay [2]; in assay [3]) was 0.1 to 10 µM in each case.

Take `Cc1ccc(C(=O)Nc2cc(C(F)(F)F)ccn2)cc1C#Cc1ccc2c(c1)ncn2-c1cnn(CCO)c1` [Compound I-31, 3-((1-(1-(2-hydroxyethyl)-1H-pyrazol-4-yl)-1H-benzo[d]imidazol-5-yl)ethynyl)-4-methyl-N-(4-(trifluoromethyl)pyridin-2-yl)benzamide]: the GI50 is less than 0.01 µM on BAF3 FL KIT EX11DEL, 0.01 to 0.05 µM in assay [1], less than 0.01 µM in assay [2] and 0.01 to 0.05 µM in assay [3].
